Assay results taken from publication PMC4168161, “A novel approach for the discovery of chemically diverse anti-malarial compounds targeting the Plasmodium falciparum Coenzyme A synthesis pathway” (Malaria Journal, 2014).

How the values were obtained:
[1] = tested on: P. falciparum CoA synthesis pathway; test: Coenzyme A chemical rescue assay on P. falciparum; format: cell-based, Plasmodium falciparum; details: for IC50 shift upon CoA supplementation: eight-point dose response, fixed CoA (0.8-2 mM), n = 2
Experimental: The well-established P. falciparum imaging assay was modified to allow assessment of chemical rescue with CoA. In brief, sorbitol (5% w/v) synchronization was performed twice, approximately 8 hr apart, on each synchronization day for two consecutive ring cycles, i.e., on day 1 and 3 of assay preparation. On day 2 the culture was split to approximately 2% trophozoite parasitaemia. On day 4 the culture was split to 1-1.5% trophozoite parasitaemia, which yielded approximately 8% ring parasitaemia after 48 hr (on day 5, i.e., the day of the assay set-up). Compound stocks (10 mM in 100% DMSO) were diluted 1:25 in sterile water, less than 24 hr prior to use. An additional 1:10 dilution was performed, resulting in a 1:250 overall compound dilution and a final DMSO concentration of 0.4%. For initial screening, compounds were tested at a final 2 μM concentration. […] The known P. falciparum CoA synthesis inhibitor, panthenol, was prepared as a 100 mM solution in 4% DMSO. The final concentration of the dose response curve of panthenol started at 10 mM and was serially diluted down to 100 nM. CoA was dissolved in water. […] Five μl of the 1:25 diluted test compound or control solutions were added to 384-well CellCarrier imaging plates (PerkinElmer). For the chemical rescue, 5 μl of CoA solution were added to ‘rescue’ wells and 5 μl water to all control and reference wells, respectively. Parasite culture was added to a final concentration of 1% parasitaemia (% P) and 0.3% haematocrit (% H). Plates were incubated for 72 hr at 37°C, 5% CO2 and 95% humidity. On day 8 the permeabilization and nuclear staining buffer was prepared in PBS containing 10 μg/ml saponin, 0.01% triton X, 5 mM EDTA (all: Sigma) and 0.5 μg/ml 4′,6-diamidino-2-phenylindole (DAPI; Life Technologies). The plates were left for at least 4 hr (typically overnight), before confocal imaging on an Opera™ High Content Screening Platform (PerkinElmer) at 405 nm excitation with a 20x water objective. Automated primary image analysis was performed concurrent with the imaging process, utilizing an Acapella® software (PerkinElmer) script to determine the number of parasites based on object size and fluorescence intensity. Determination of the % growth compared to controls (2 μM artemisinin as positive and 0.4% DMSO as negative control) was performed in Microsoft® Excel 2010. Statistical analysis including IC50 determination and graphical output was performed in GraphPad Prism® 5 using non-linear regression variable slope curve fitting. Cell-based high throughput screening (HTS) entails the distinct benefit that positive hits have already proven effective against the live parasite within its natural host erythrocyte environment. Modifications of an image-based assay were undertaken to identify compounds that interfere with the P. falciparum CoA pathway. The modification involved a chemical rescue approach adapted from a similar method used to investigate apicoplast function. The principle idea of the chemical rescue approach is that supplementation of an unbranched pathway’s end product – in this case CoA - should abrogate, or at least alleviate, negative growth effects of compounds inhibiting any step in the pathway. […] To identify new potential CoA synthesis inhibitors, the CoA chemical rescue approach was used to screen 144 compounds with known antiplasmodial activity identified by HTS in the Avery laboratory, in addition to the MMV malaria box. […] Compounds which rescued growth to at least 50% of control values and two-fold difference compared to treatment alone, were regarded as partial rescue hits.

HEK293 cells = test: CoA chemical rescue on HEK293 cells; format: cell-based, human; details: dose response with and without CoA, n = 2
Experimental: To assess cytotoxicity of compounds in dose response, a resazurin-based assay was utilized to determine cell viability. In brief, HEK293 cells were grown in DMEM medium (Life Technologies) containing 10% foetal calf serum (FCS; Gibco). Cells were trypsinized, counted and seeded at 2,000 cells per well in 45 μl media into TC-treated 384-well plates (Falcon) and left to adhere overnight at 37°C, 5% CO2 and 95% humidity.
Plates were incubated for 72 hr at 37°C, 5% CO2 and 95% humidity, then the media was removed and replaced by 35 μl of 44 μM resazurin in DMEM without FCS. The plates were incubated for another 4-6 hr at 37°C, 5% CO2 and 95% humidity before reading on an EnVision® Plate Reader (PerkinElmer) using fluorescence excitation/emission settings of 530 nm/595 nm. Determination of the% growth compared to controls (40 μM puromycin as positive and 0.4% DMSO as negative control) was performed in Microsoft® Excel 2010. Statistical analysis including IC50 determination and graphical output was performed in GraphPad Prism® 5 using nonlinear regression variable slope curve fitting.

[2] = compound at ~ IC80, with CoA supplementation
[3] = at 2 μM compound, with CoA supplementation

Cc1csc(Sc2ncnc3sccc23)n1 [Amb180780]
CoA rescue (relative parasite number, % of untreated control) [1, 2]: 80% rescue at ~ IC80
IC50 shift upon CoA supplementation [1]: greater than six times

CC(=O)c1ccc2c3c(onc13)-c1ccccc1C2=O [Amb3377585]
CoA rescue (relative parasite number, % of untreated control) [1, 2]: 50% rescue at ~ IC80
IC50 shift upon CoA supplementation [1]: greater than six times

CCOc1ccc(Nc2c3ccccc3nc3ccccc23)cc1.Cl [MMV000304/Amb636705]
CoA rescue (relative parasite number, % of untreated control) [1, 3]: 80% rescue at 2 μM
IC50 shift upon CoA supplementation [1]: 1.5 times
cytotoxic effect on HEK293 cells upon CoA addition (HEK293 cells): reduced upon CoA addition

CCc1ccc(Nc2cc(C)c3ccc(O)cc3n2)cc1.Cl [MMV000570/C614-0191]
CoA rescue (relative parasite number, % of untreated control) [1, 2]: 80% rescue at ~ IC80
IC50 shift upon CoA supplementation [1]: more than doubled

COc1ccc2c(=O)cc(C(Cl)(Cl)Cl)oc2c1 [MMV665820/5534045]
CoA rescue (relative parasite number, % of untreated control) [1, 3]: 80% rescue at 2 μM
IC50 shift upon CoA supplementation [1]: greater than six times
CoA rescue hit confirmation ([1]; retest): confirmed as a hit

CC(C)=NOC(=O)c1c(C)noc1-c1snnc1C [SPB03400]
CoA rescue (relative parasite number, % of untreated control) [1, 2]: 50% rescue at ~ IC80
IC50 shift upon CoA supplementation [1]: 1.5 times

CC1=CC(=O)C(C(C)C)=C/C1=N/OS(=O)(=O)c1ccccc1 [STK 740987]
CoA rescue (relative parasite number, % of untreated control) [1, 3]: 50% rescue at 2 μM
IC50 shift upon CoA supplementation [1]: greater than six times
